From PubChem BioAssay AID1259411 (Chemical Carcinogenesis Research Information System (CCRIS), 2018)
Activity calls are given as the source filed them. How the calls were made is not given here.

Tested on: rodent carcinogenicity bioassays, tumor incidence
Experiment: CCRIS carcinogenicity studies
Outline: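 Archive of carcinogenicity, mutagenicity, tumor promotion and tumor inhibition results drawn from journals, NCI reports and other sources, expert-reviewed; covers 1985-2011 and is no longer updated.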

## OC[C@@H](O)[C@@H](O)[C@H](O)[C@H](O)CO[C@H]1O[C@H](CO)[C@@H](O)[C@H](O)[C@H]1O
Species: MOUSE, Strain/Sex: SWISS/FEMALE, Route: ORAL, Dose: 0, 2.5, 5, 10% IN DIET FOR LIFE (PARENTS FED DIETS BEFORE AND AFTER PREGNANCY AND DURING LACTATION) (STUDY DURATION: 104, Dose: 0, 2.5, 5, 10% IN DIET FOR LIFE (PARENTS FED DIETS BEFORE AND AFTER PREGNANCY AND DURING LACTATION) (STUDY DURATION: 104
  carcinogen call: inactive; negative
Species: MOUSE, Strain/Sex: SWISS/MALE, Route: ORAL, Dose: 0, 2.5, 5, 10% IN DIET FOR LIFE (PARENTS FED DIETS BEFORE AND AFTER PREGNANCY AND DURING LACTATION) (STUDY DURATION: 94, Dose: 0, 2.5, 5, 10% IN DIET FOR LIFE (PARENTS FED DIETS BEFORE AND AFTER PREGNANCY AND DURING LACTATION) (STUDY DURATION: 94
  carcinogen call: inactive; negative
Species: RAT, Strain/Sex: WISTAR/FEMALE, Route: ORAL, Dose: 0, 2.5, 5, 10% IN DIET FOR LIFE (PARENTS FED DIETS BEFORE AND AFTER PREGNANCY AND DURING LACTATION) (STUDY DURATION: 130, Dose: 0, 2.5, 5, 10% IN DIET FOR LIFE (PARENTS FED DIETS BEFORE AND AFTER PREGNANCY AND DURING LACTATION) (STUDY DURATION: 130
  carcinogen call: inactive; negative
Species: RAT, Strain/Sex: WISTAR/MALE, Route: ORAL, Dose: 0, 2.5, 5, 10% IN DIET FOR LIFE (PARENTS FED DIETS BEFORE AND AFTER PREGNANCY AND DURING LACTATION) (STUDY DURATION: 128, Dose: 0, 2.5, 5, 10% IN DIET FOR LIFE (PARENTS FED DIETS BEFORE AND AFTER PREGNANCY AND DURING LACTATION) (STUDY DURATION: 128
  carcinogen call: inactive; negative

## CC(=O)OC[C@H]1O[C@H](O[C@]2(COC(C)=O)O[C@H](COC(=O)C(C)C)[C@@H](OC(=O)C(C)C)[C@@H]2OC(=O)C(C)C)[C@H](OC(=O)C(C)C)[C@@H](OC(=O)C(C)C)[C@@H]1OC(=O)C(C)C
Species: MONKEY, Strain/Sex: CYNOMOLGUS/FEMALE, Route: GAVAGE, Dose: 0, 500, 1450, 2400 MG/KG BW 1X/D FOR 52 WK (STUDY DURATION: 52 WK), Dose: 0, 500, 1450, 2400 MG/KG BW 1X/D FOR 52 WK (STUDY DURATION: 52 WK)
  carcinogen call: inactive; negative
Species: MONKEY, Strain/Sex: CYNOMOLGUS/MALE, Route: GAVAGE, Dose: 0, 500, 1450, 2400 MG/KG BW 1X/D FOR 52 WK (STUDY DURATION: 52 WK), Dose: 0, 500, 1450, 2400 MG/KG BW 1X/D FOR 52 WK (STUDY DURATION: 52 WK)
  carcinogen call: inactive; negative
Species: MOUSE, Strain/Sex: B6C3F1/FEMALE, Route: ORAL, Dose: 0, 1.25, 2.5, 5 G/KG BW IN DIET FOR 2 YR (STUDY DURATION: 2 YR), Dose: 0, 1.25, 2.5, 5 G/KG BW IN DIET FOR 2 YR (STUDY DURATION: 2 YR)
  carcinogen call: inactive; negative
Species: MOUSE, Strain/Sex: B6C3F1/MALE, Route: ORAL, Dose: 0, 1.25, 2.5, 5 G/KG BW IN DIET FOR 2 YR (STUDY DURATION: 2 YR), Dose: 0, 1.25, 2.5, 5 G/KG BW IN DIET FOR 2 YR (STUDY DURATION: 2 YR)
  carcinogen call: inactive; negative
Species: RAT, Strain/Sex: F344/FEMALE, Route: ORAL, Dose: 0 0.5, 1, 2 G/KG BE IN DIET FOR 2 YR (STUDY DURATION: 2 YR), Dose: 0 0.5, 1, 2 G/KG BE IN DIET FOR 2 YR (STUDY DURATION: 2 YR)
  carcinogen call: inactive; negative
Species: RAT, Strain/Sex: F344/MALE, Route: ORAL, Dose: 0, 0.5, 1, 2 G/KG BW IN DIET FOR 2 YR (STUDY DURATION: 2 YR), Dose: 0, 0.5, 1, 2 G/KG BW IN DIET FOR 2 YR (STUDY DURATION: 2 YR)
  carcinogen call: inactive; negative

## O=C(O)c1nn(Cc2ccc(Cl)cc2Cl)c2ccccc12
Species: RAT, Strain/Sex: SPRAGUE-DAWLEY/FEMALE, Route: ORAL, Dose: 0, 20, 60, 180 MG/KG/D IN DIET FOR 2 YR (STUDY DURATION: 2 YR), Dose: 0, 20, 60, 180 MG/KG/D IN DIET FOR 2 YR (STUDY DURATION: 2 YR)
  carcinogen call: inactive; negative
Species: RAT, Strain/Sex: SPRAGUE-DAWLEY/MALE, Route: ORAL, Dose: 0, 20, 60, 180 MG/KG/D IN DIET FOR 2 YR (STUDY DURATION: 2 YR), Dose: 0, 20, 60, 180 MG/KG/D IN DIET FOR 2 YR (STUDY DURATION: 2 YR)
  carcinogen call: inactive; negative

## Nc1ccc(Oc2ccc(N)c(Cl)c2)cc1Cl
Species: RAT, Route: SUBCUTANEOUS, Tumor Site: Type of Lesion: EAR (CANAL)
  carcinogen call: active; positive

## Cc1cc2ccccc2c2ccc3c(c12)C=C[C@@H](O)[C@@H]3O
Species: MOUSE, Strain/Sex: ICR/FEMALE, Route: INTRAPERITONEAL, Dose: 8 NMOL/5 µL DMSO ON DAY 1, 16 NMOL/10 µL ON DAY 8, AND 32 NMOL/20 µL ON DAY 15 OF AGE (STUDY DURATION: 35 WK), Tumor Site: Type of Lesion: LUNG: TUMORS
  carcinogen call: active; positive
Species: MOUSE, Strain/Sex: ICR/MALE, Route: INTRAPERITONEAL, Dose: 8 NMOL/5 µL DMSO ON DAY 1, 16 NMOL/10 µL ON DAY 8, AND 32 NMOL/20 µL ON DAY 15 OF AGE (STUDY DURATION: 35 WK), Tumor Site: Type of Lesion: LUNG: TUMORS, LIVER: TUMORS
  carcinogen call: active; positive

## O=c1[nH]c(=O)n([C@H]2C[C@H](O)[C@@H](CO)O2)cc1Br
Species: RAT, Strain/Sex: LIO/FEMALE, Route: SUBCUTANEOUS, Dose: 0, 3.2 MG ON DAY 1 OR ON DAYS 1 AND 3 OR ON DAYS 1, 3, 7, AND 21 FOLLOWING BIRTH FOR TOTAL DOSES OF 3.2, 6.4, OR 12.8 MG, Tumor Site: Type of Lesion: THYROID: ADENOMA, KIDNEY: MESENCHYMAL TUMORS
  carcinogen call: active; positive
Species: RAT, Strain/Sex: LIO/MALE, Route: SUBCUTANEOUS, Dose: 0, 3.2 MG ON DAY 1 OR ON DAYS 1 AND 3 OR ON DAYS 1, 3, 7, AND 21 FOLLOWING BIRTH FOR TOTAL DOSES OF 3.2, 6.4, OR 12.8 MG, Tumor Site: Type of Lesion: TESTES: LEYDIGOMA
  carcinogen call: active; positive

## CC1=C(C)C(=O)C(C(CCCCCC(=O)O)c2ccccc2)=C(C)C1=O (stereo unspecified)
Species: RAT, Strain/Sex: F344/FEMALE, Route: ORAL, Dose: 0, 3, 10, 30, 100 MG/KG/D IN THE DIET FOR 52 WK (STUDY DURATION: 52 WK), Dose: 0, 3, 10, 30, 100 MG/KG/D IN THE DIET FOR 52 WK (STUDY DURATION: 52 WK)
  carcinogen call: inactive; negative
Species: RAT, Strain/Sex: F344/MALE, Route: ORAL, Dose: 0, 3, 10, 30, 100 MG/KG/D IN THE DIET FOR 52 WK (STUDY DURATION: 52 WK), Dose: 0, 3, 10, 30, 100 MG/KG/D IN THE DIET FOR 52 WK (STUDY DURATION: 52 WK)
  carcinogen call: inactive; negative

## Cc1c(N)nc([C@H](CC(N)=O)NC[C@H](N)C(N)=O)nc1C(=O)N[C@H](C(=O)N[C@H](C)[C@@H](O)[C@H](C)C(=O)N[C@H](C(=O)NCCc1nc(-c2nc(C(=O)NCCCN[C@@H](C)c3ccccc3)cs2)cs1)[C@@H](C)O)[C@@H](O[C@@H]1O[C@@H](CO)[C@@H](O)[C@H](O)[C@@H]1O[C@H]1O[C@H](CO)[C@@H](O)[C@H](OC(N)=O)[C@@H]1O)c1cnc[nH]1
Species: RAT, Strain/Sex: SPRAGUE-DAWLEY/FEMALE, Route: SUBCUTANEOUS, Dose: 0, 0.32, 0.63, 1.25, 2.50, 5.0 MG/KG IN SALINE 1/WK FOR 10 WK THEN 1/2 WK FOR 12 WK, 19 WK OR LIFETIME (STUDY DURATION:, Dose: 0, 0.32, 0.63, 1.25, 2.50, 5.0 MG/KG IN SALINE 1/WK FOR 10 WK THEN 1/2 WK FOR 12 WK, 19 WK OR LIFETIME (STUDY DURATION:, Tumor Site: Type of Lesion: KIDNEY: MALIGNANT OR BENIGN TUMOR, INJECTION SITE: MALIGNANT TUMOR
  carcinogen call: active; positive
Species: RAT, Strain/Sex: SPRAGUE-DAWLEY/MALE, Route: SUBCUTANEOUS, Dose: 0, 0.32, 0.63, 1.25, 2.50, 5.0 MG/KG IN SALINE 1/WK FOR 10 WK THEN 1/2 WK FOR 12 WK, 19 WK OR LIFETIME (STUDY DURATION:, Dose: 0, 0.32, 0.63, 1.25, 2.50, 5.0 MG/KG IN SALINE 1/WK FOR 10 WK THEN 1/2 WK FOR 12 WK, 19 WK OR LIFETIME (STUDY DURATION:, Tumor Site: Type of Lesion: KIDNEY: MALIGNANT OR BENIGN TUMOR, INJECTION SITE: MALIGNANT TUMOR
  carcinogen call: active; positive
